Experimental findings from ChEMBL document CHEMBL3108765, “2-Aminonicotinic acid 1-oxides are chemically stable inhibitors of quinolinic acid synthesis in the mammalian brain: a step toward new antiexcitotoxic agents” (J Med Chem, 2013) are described below.

Series [1] can be described thus: Chemical stability in PBS buffer assessed as auto-oxidative degradation after 24 hrs by HPLC analysis. To be noted: read-out: Drug degradation. Format: physicochemical.
Series [2] addresses T1, 3-hydroxyanthranilate 3,4-dioxygenase (Homo sapiens) (UniProt P46952).
T1 sequence (whole entry): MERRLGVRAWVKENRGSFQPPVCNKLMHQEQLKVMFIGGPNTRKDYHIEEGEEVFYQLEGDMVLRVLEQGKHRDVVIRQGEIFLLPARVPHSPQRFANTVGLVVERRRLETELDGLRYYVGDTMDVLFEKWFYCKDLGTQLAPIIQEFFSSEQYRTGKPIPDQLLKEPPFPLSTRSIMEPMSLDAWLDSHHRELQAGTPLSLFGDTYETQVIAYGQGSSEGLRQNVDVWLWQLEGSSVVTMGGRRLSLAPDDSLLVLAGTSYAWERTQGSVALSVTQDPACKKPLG
In words: Inhibition of 3-HAO in human brain homogenates using [1-14C]-3-HANA as substrate assessed as [14C]-QUIN production at 100 uM after 1 hr by liquid scintillation spectrometric analysis relative to control. It counts as tissue-based.

In series [3] the target is T1, 3-hydroxyanthranilate 3,4-dioxygenase (Homo sapiens). Kind of series: Inhibition of 3-HAO in human brain homogenates using [1-14C]-3-HANA as substrate assessed as [14C]-QUIN production at 10 uM after 1 hr by liquid scintillation spectrometric analysis relative to control. It counts as tissue-based.
In series [4] the target is T2, 3-hydroxyanthranilate 3,4-dioxygenase (Rattus norvegicus) (UniProt P46953).
T2 sequence (whole entry): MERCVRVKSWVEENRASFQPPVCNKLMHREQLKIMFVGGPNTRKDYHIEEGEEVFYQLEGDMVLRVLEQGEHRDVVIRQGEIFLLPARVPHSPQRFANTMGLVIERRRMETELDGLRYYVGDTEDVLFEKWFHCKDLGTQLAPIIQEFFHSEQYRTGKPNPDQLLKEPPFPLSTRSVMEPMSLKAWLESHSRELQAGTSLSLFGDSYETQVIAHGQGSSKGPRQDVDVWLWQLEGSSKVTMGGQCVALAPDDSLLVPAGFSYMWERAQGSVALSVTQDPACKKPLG
Kind of series: Inhibition of 3-HAO in Sprague-Dawley rat brain homogenates using [1-14C]-3-HANA as substrate assessed as [14C]-QUIN production at 1 mM after 1 hr by liquid scintillation spectrometric analysis relative to control. It counts as tissue-based.

For series [5], the target named is T1, 3-hydroxyanthranilate 3,4-dioxygenase (Homo sapiens). In words: Inhibition of 3-HAO in human brain homogenates using [1-14C]-3-HANA as substrate assessed as [14C]-QUIN production at 1 mM after 1 hr by liquid scintillation spectrometric analysis relative to control. It counts as tissue-based.
The target of series [6] is T2, 3-hydroxyanthranilate 3,4-dioxygenase (Rattus norvegicus). Kind of series: Inhibition of 3-HAO in Sprague-Dawley rat brain homogenates using [1-14C]-3-HANA as substrate assessed as [14C]-QUIN production at 10 uM after 1 hr by liquid scintillation spectrometric analysis relative to control. It counts as tissue-based.
The target is the same in series [7]. Kind of series: Inhibition of 3-HAO in Sprague-Dawley rat brain homogenates using [1-14C]-3-HANA as substrate assessed as [14C]-QUIN production at 100 uM after 1 hr by liquid scintillation spectrometric analysis relative to control. It counts as tissue-based.
The target of series [8] is T3, 3-hydroxyanthranilate 3,4-dioxygenase (Homo sapiens, UniProt P46952).
T3 sequence (P46952 whole entry): T1 sequence (whole entry)
In words: Inhibition of 3-HAO in human brain homogenates using [1-14C]-3-HANA as substrate assessed as [14C]-QUIN production after 1 hr by liquid scintillation spectrometric analysis. Format: tissue-based.

The target in series [9] is T4, 3-hydroxyanthranilate 3,4-dioxygenase (Rattus norvegicus, UniProt P46953).
T4 sequence (P46953 whole entry): T2 sequence (whole entry)
In words: Inhibition of 3-HAO in Sprague-Dawley rat brain homogenates using [1-14C]-3-HANA as substrate assessed as [14C]-QUIN production after 1 hr by liquid scintillation spectrometric analysis. Format: tissue-based.

Series [10] relates to Rattus norvegicus. In words: In vivo inhibition of 3-HAO in excitotoxically lesioned Sprague-Dawley rat striatum assessed as de novo formation of [3H]-QUIN administered as intrastriatally measured after 2 hrs (reference value: 3.4 +/- 0.5%). It counts as functional.
Series [11] can be described thus: Drug degradation in PBS buffer assessed as parent compound level at 10 uM after 24 hrs by HPLC/UV-vis spectroscopic analysis. It counts as physicochemical. The following applies: read-out: Stability.
A short description of series [12]: Drug degradation in PBS buffer assessed as parent compound level at 100 uM after 24 hrs by HPLC/UV-vis spectroscopic analysis. Format: physicochemical. The following applies: read-out: Stability.

For the molecule `Nc1c(C(=O)O)ccc(Cl)c1O`, the degraded at 24 h in series [1] is 62%.

In the case of `COC(=O)c1ccc(C)[n+]([O-])c1N`, the inhibition (as a rule, the drop in the measured response relative to a control, in per cent) in [2] was -5.8%; in series [3] it was -7.9%; in series [4], 9.3%; in series [5], 6%; in series [6] it was 1%; in series [7], 1.2%.

In the case of `CC(C)c1cc(C(C)C)[n+]([O-])c(N)c1C(=O)O`, the inhibition in series [2] is 1.5%; in series [3] it was -5.4%; in series [4] it was 14.6%; in series [5] it was 10.6%; in [6], 1.2%; in series [7], 2.9%.

With `O=c1[nH]cnc2c1ccc[n+]2[O-]`, the inhibition in series [2] was determined as 13%; in series [3], 5.5%; in series [4] it was 46.9%; in [5], 44.3%; in series [6] it was 0.6%; in [7], 6.4%.

As for `CCc1cc(C)[n+]([O-])c(N)c1C(=O)O`, the inhibition turned out to be 10.9% in [2]; 8.5% in series [3]; 23% in series [4]; 20% in [5]; 2.8% in series [6]; 3.1% in series [7].

Consider `Cc1ccc(C(=O)O)c(N)n1`, for which the inhibition in [2] is 0.7%; in [3] it was -3.6%; in series [4], 42.5%; in [5] it was 24.8%; in [6] it was -2.1%; in series [7], 5.1%.

For `CCc1ccc(C(=O)O)c(N)[n+]1[O-]`, the inhibition was determined as 88.4% in series [2]; 76.6% in series [3]; 94.2% in [4]; 90.4% in series [5]; 69.9% in series [6]; 90.7% in series [7].

For the molecule `Cc1cc(C(=O)O)c(N)[n+]([O-])c1`, the inhibition in series [2] was determined as 52.6%; in [3], 16.3%; in [4], 67.6%; in series [5], 80.1%; in series [6], 8.7%; in series [7], 30.7%.

Take `Cc1cc(C(=O)O)c(N)[n+]([O-])c1C`: the inhibition in series [2] was 76.3%; in [3], 31.3%; in series [4], 85.8%; in [5] it was 89.1%; in series [6], 17.6%; in [7] it was 61.6%.

For the molecule `Nc1c(C(=O)O)ccc(Cl)[n+]1[O-]`, the inhibition was determined as 89.6% in series [2]; 72.9% in series [3]; 95.2% in series [4]; 95.2% in [5]; 67.3% in series [6]; 84% in series [7].

For the molecule `Cc1cc(C(C)C)c(C(=O)O)c(N)[n+]1[O-]`, the inhibition turned out to be 10.2% in series [2]; 4% in series [3]; 25.7% in series [4]; 24.1% in series [5]; 1.1% in series [6]; 2.2% in [7].

Turning to `O=C(O)c1ccc(Cl)[n+]([O-])c1`, the inhibition is -3% in [2]; -5.4% in [3]; 37% in [4]; 30.4% in series [5]; 2.9% in series [6]; 11.4% in series [7].

For the molecule `Nc1c(C(=O)O)cc(Br)c[n+]1[O-]`, the inhibition in series [2] is 67.2%; in series [3], 22.9%; in series [4], 83.7%; in series [5], 89.1%; in [6] it was 14.5%; in [7], 55.2%.

On to `Cc1ccc(C(=O)O)c(N)[n+]1[O-]`, for which the inhibition in series [2] was determined as 92.3%; in series [3] it was 85.5%; in series [4] it was 96%; in series [5], 94.4%; in series [6] it was 76.9%; in [7], 94.1%. Further, the IC50 (as a rule, the concentration that gives 50% inhibition) in series [8] is 1100 nM; in [9], 2800 nM. The “[3H]-QUIN formed” value in [10] was found to be 0.9%. Further, the remaining at 24 h, 10 µM in series [11] came to 101%. Also, the remaining at 24 h, 100 µM in series [12] was 102%.

`Cc1cc(C)[n+]([O-])c(N)c1C(=O)O`: the inhibition in series [2] is 16.3%; in [3], 0.7%; in series [4] it was 46.6%; in [5], 69.5%; in series [6], -0.8%; in series [7], 4.3%.

`Cc1ccc(C#N)c(N)[n+]1[O-]`: the inhibition is -0.5% in [2]; -2.9% in [3]; 2.4% in series [4]; 5.6% in series [5]; -2.4% in series [6]; -0.6% in [7].

In the case of `Nc1c(C(=O)O)cc(Cl)c[n+]1[O-]`, the inhibition was 68.6% in series [2]; 24.8% in [3]; 74.4% in series [4]; 85.9% in series [5]; 9.1% in [6]; 42.6% in series [7].

Consider `Cc1ccc(C(N)=O)c(N)[n+]1[O-]`, for which the inhibition in [2] was 1.3%; in series [3], 1.7%; in series [4], 11.5%; in series [5] it was 20.1%; in series [6], -1.1%; in series [7], -2%.

On to `Nc1c(C(=O)O)ccc[n+]1[O-]`, for which the inhibition in series [2] amounted to 88.8%; in [3], 74%; in series [4], 92.4%; in series [5], 94%; in series [6], 47.6%; in [7], 84.9%. Moreover, the remaining at 24 h, 10 µM in [11] was found to be 101%. The remaining at 24 h, 100 µM in series [12] amounted to 103%.

Take `Cc1cc(-c2ccccc2)c(C(=O)O)c(N)[n+]1[O-]`: the inhibition in [2] is 4.1%; in series [3], -2.8%; in series [4] it was 14.8%; in series [5], 7.4%; in [6], 2.4%; in series [7], 5.5%.
